Source: ChEMBL document CHEMBL1152852, “Substituted benzo[d]oxazol-2(3H)-one derivatives with preference for the sigma1 binding site” (Eur J Med Chem, 2009)

Columns and labels:
[1] = Displacement of [3H]DTG from sigma 2 receptor in rat liver membrane; assay type: cell membranes
[2] = species on record: Rattus norvegicus; test: Selectivity ratio of Ki for rat liver sigma 2 receptor to Ki for rat liver sigma 1 receptor
[3] = target: Sigma non-opioid intracellular receptor 1 (Rattus norvegicus, UniProt Q9R0C9); test: Displacement of [3H](+)-pentazocine from sigma 1 receptor in rat liver membrane; assay type: cell membranes
Chain of Sigma non-opioid intracellular receptor 1 (Q9R0C9 whole entry): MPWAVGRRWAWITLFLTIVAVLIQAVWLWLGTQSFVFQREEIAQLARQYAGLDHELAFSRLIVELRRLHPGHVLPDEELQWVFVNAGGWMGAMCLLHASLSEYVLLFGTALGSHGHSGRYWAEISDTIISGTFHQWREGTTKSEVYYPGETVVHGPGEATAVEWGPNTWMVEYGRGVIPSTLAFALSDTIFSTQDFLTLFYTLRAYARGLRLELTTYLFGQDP

Row | SMILES | Ki [1] | Ratio Ki [2] | Ki [3]
1 | O=c1oc2ccccc2n1CC1CCN(Cc2ccccc2Cl)CC1 | 0.299 µM |  | 
2 | O=c1oc2ccccc2n1CC1CCN(Cc2ccc(F)cc2)CC1 | 0.17 µM | 44 | 0.0039 µM
3 | O=c1oc2ccccc2n1CC1CCN(Cc2ccc(Cl)cc2)CC1 | 0.427 µM |  | 
4 | O=c1oc2ccccc2n1CC1CCN(Cc2ccccc2F)CC1 | 0.213 µM | 9 | 0.023 µM
5 | Cc1ccc(CN(C)CCCCc2cn(-c3ccc(F)cc3)c3ccccc23)c(C)c1 | 0.0059 µM | 0.05 | 
6 | Cc1ccc(CN2CCC(Cn3c(=O)oc4ccccc43)CC2)cc1 | 0.116 µM | 40 | 0.0029 µM
7 | Cc1cc(C)c(CN2CCC(Cn3c(=O)oc4ccccc43)CC2)c(C)c1 | 2.88 µM | 0.5 | 6.23 µM
8 | O=c1oc2ccccc2n1CC1CCN(Cc2ccccc2)CC1 | 0.246 µM |  | 
9 | O=C(CCCN1CCC(O)(c2ccc(Cl)cc2)CC1)c1ccc(F)cc1 [HALOPERIDOL] | 0.235 µM |  | 
10 | O=c1oc2ccccc2n1CC1CCN(Cc2cccc3ccccc23)CC1 | 1.29 µM |  | 
11 | Cc1ccccc1NC(=N)Nc1ccccc1C [DITOLYLGUANIDINE] | 0.13 µM |  | 
12 | CN(CCCc1cn(-c2ccc(F)cc2)c2ccccc12)Cc1ccccc1 | 0.0059 µM | 22 | 
13 | CC(C)=CCN1CC[C@]2(C)c3cc(O)ccc3C[C@H]1[C@H]2C [(+)-PENTAZOCINE] | 0.327 µM |  | 
14 | CCC(=O)c1ccc2c(c1)oc(=O)n2CCCN1CCCCC1 | 0.0085 µM | 58 | 
15 | Cc1ccccc1CN1CCC(Cn2c(=O)oc3ccccc32)CC1 | 0.338 µM | 10 | 0.033 µM
16 | Cc1ccc(CN2CCC(Cn3c(=O)oc4ccccc43)CC2)c(C)c1 | 0.187 µM | 6 | 0.03 µM
17 | O=c1oc2ccccc2n1CC1CCN(Cc2ccc(-c3ccccc3)cc2)CC1 | > 10 µM | > 25 | 0.394 µM
18 | O=c1oc2ccccc2n1CC1CCN(Cc2ccc(Cl)cc2Cl)CC1 | 0.382 µM | 1.5 | 0.258 µM
